The text below walks through data of patent publication US9822124B2, “Bicyclic heteroaromatic carboxamide compounds useful as Pim kinase inhibitors” (Incyte Corporation, priority 2014, dated 2017).

What all share (type): biochemical
For one test, the target named is Pim-1 (Homo sapiens (Human), UniProt P11309). The test is described as follows: Pim-1 kinase assay (AlphaScreen, Biotin-labeled BAD peptide substrate). The following applies: 1 mM ATP; read-out: Pim1 IC50. The essentials: (§1)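 Kinase reactions ran 1 h at 25° C, pH 7.5, with 0.05 μM biotin-BAD peptide, 1 mM ATP, and 2.5 μM Pim-1 or 1.25 μM Pim-3. EDTA stop buffer carried anti-phospho-Bad (Ser112) antibody plus streptavidin donor and Protein-A acceptor beads. AlphaScreen signal was read after 1 h in the dark.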
For orientation: Bead proximity is the source of the signal in Alpha formats.

A further test concerns the target Pim-2 (Homo sapiens (Human), UniProt Q9P1W9). The test is described as follows: Pim-2 kinase assay (TR-FRET, Fluorescein-labeled CREBtide peptide substrate). The settings on record: 1 mM ATP; read-out: Pim2 IC50. The essentials:
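Human Pim-2 (1 nM) phosphorylated 0.05 μM fluorescein-CREBtide with 1 mM ATP for 2 h at 25 °C in Tris buffer pH 7.5 containing MgCl2, DTT, BSA and Tween-20. Reactions were stopped with EDTA and Tb-anti-pSer133 antibody was added, and TR-FRET was read after 30 min.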
In general terms: In TR-FRET formats the signal depends on donor and acceptor labels being close together.

The target in another test is Pim-3 (Homo sapiens (Human), UniProt Q86V86). The test is described as follows: Pim-3 kinase assay (AlphaScreen, Biotin-labeled BAD peptide substrate). The following applies: 1 mM ATP; read-out: Pim3 IC50. The gist of the method: as §1

Chain of Pim-1 (P11309 whole entry): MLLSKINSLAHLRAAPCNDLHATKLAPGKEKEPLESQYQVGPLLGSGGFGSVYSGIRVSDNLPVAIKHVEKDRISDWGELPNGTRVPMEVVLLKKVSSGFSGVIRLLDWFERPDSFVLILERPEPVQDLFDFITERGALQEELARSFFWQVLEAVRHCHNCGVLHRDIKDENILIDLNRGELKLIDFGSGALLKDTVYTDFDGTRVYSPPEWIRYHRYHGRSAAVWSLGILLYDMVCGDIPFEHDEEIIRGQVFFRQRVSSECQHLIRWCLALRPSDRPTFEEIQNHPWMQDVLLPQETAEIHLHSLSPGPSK
Chain of Pim-2 (Q9P1W9 whole entry): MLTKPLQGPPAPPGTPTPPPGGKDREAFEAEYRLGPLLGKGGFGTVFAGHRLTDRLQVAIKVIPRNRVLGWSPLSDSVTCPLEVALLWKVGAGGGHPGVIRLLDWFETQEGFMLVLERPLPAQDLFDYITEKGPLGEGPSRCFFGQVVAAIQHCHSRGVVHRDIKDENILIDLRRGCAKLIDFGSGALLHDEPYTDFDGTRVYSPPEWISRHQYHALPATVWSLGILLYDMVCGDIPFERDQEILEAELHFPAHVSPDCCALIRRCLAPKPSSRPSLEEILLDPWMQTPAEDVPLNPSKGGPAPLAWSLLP

What is called IC50 is the midpoint of a concentration-inhibition curve. Take `C[C@H]1CN(c2ccncc2NC(=O)c2ccc3ccn(C4CCC4)c3n2)C[C@@H](N)[C@@H]1O` [Example 77, N-{4-[(3R,4R,5S)-3-Amino-4-hydroxy-5-methylpiperidin-1-yl]pyridin-3-yl}-1-cyclobutyl-1H-pyrrolo[2,3-b]pyridine-6-carboxamide]: the half-maximal inhibitory concentration (IC50) is ≤ 10 nM at Pim-1, 1000 to 10000 nM on Pim-2 and ≤ 10 nM on Pim-3.

For `C[C@@H]1C[C@H](N)CN(c2ccncc2NC(=O)c2ccc3ccn(C4CCC4)c3n2)C1` [Example 78, N-{4-[(3S,5R)-3-Amino-5-methylpiperidin-1-yl]pyridin-3-yl}-1-cyclobutyl-1H-pyrrolo[2,3-b]pyridine-6-carboxamide], the IC50 was ≤ 10 nM on Pim-1, 100 to 1000 nM on Pim-2 and ≤ 10 nM on Pim-3.

Regarding `C[C@H]1CN(c2ccncc2NC(=O)c2ccc3sc(C4CC4)nc3n2)C[C@@H](N)[C@@H]1O` [Example 79, N-{4-[(3R,4R,5S)-3-Amino-4-hydroxy-5-methylpiperidin-1-yl]pyridin-3-yl}-2-cyclopropyl[1,3]thiazolo[4,5-b]pyridine-5-carboxamide], the IC50 was ≤ 10 nM at Pim-1, 100 to 1000 nM on Pim-2 and ≤ 10 nM on Pim-3.

In the case of `C[C@@H]1C[C@H](N)CN(c2ccncc2NC(=O)c2ccc3sc(C4CC4)nc3n2)C1` [Example 80, N-(4-((3S,5R)-3-Amino-5-methylpiperidin-1-yl)pyridin-3-yl)-2-cyclopropylthiazolo[4,5-b]pyridine-5-carboxamide], the IC50 at Pim-1 is ≤ 10 nM; on Pim-2, 100 to 1000 nM; at Pim-3, ≤ 10 nM.

With `C[C@@H]1C[C@H](N)C[C@H](c2ccncc2NC(=O)c2ccn3ncc(-c4c(F)cc(CO)cc4F)c3n2)C1` [Example 81, N-{4-[(1R,3S,5S)-3-Amino-5-methylcyclohexyl]pyridin-3-yl}-3-[2,6-difluoro-4-(hydroxymethyl)phenyl]pyrazolo[1,5-a]pyrimidine-5-carboxamide], the IC50 at Pim-1 was ≤ 10 nM; at Pim-2 it was ≤ 100 nM; at Pim-3, ≤ 10 nM.

As for `CC(C)c1cnn2ccc(C(=O)Nc3cnccc3[C@@H]3C[C@H](C)C[C@H](N)C3)nc12` [Example 82, N-{4-[(1R,3S,5S)-3-Amino-5-methylcyclohexyl]pyridin-3-yl}-3-isopropylpyrazolo[1,5-a]pyrimidine-5-carboxamide], the half-inhibitory concentration (IC50) at Pim-1 is ≤ 10 nM; at Pim-2, 1000 to 10000 nM; on Pim-3, 10 to 50 nM.

For `C[C@@H]1C[C@H](N)C[C@H](c2ccncc2NC(=O)c2ccn3ncc(-c4c(F)cccc4F)c3n2)C1` [Example 83, N-{4-[(1R,3S,5S)-3-Amino-5-methylcyclohexyl]pyridin-3-yl}-3-(2,6-difluorophenyl)pyrazolo[1,5-a]pyrimidine-5-carboxamide], the IC50 is ≤ 10 nM on Pim-1, 100 to 1000 nM on Pim-2 and ≤ 10 nM at Pim-3.

For the compound `COc1cc(F)c(-c2cnn3ccc(C(=O)Nc4cnccc4[C@@H]4C[C@H](C)C[C@H](N)C4)nc23)c(F)c1` [Example 84, N-{4-[(1R,3S,5S)-3-Amino-5-methylcyclohexyl]pyridin-3-yl}-3-(2,6-difluoro-4-methoxyphenyl)pyrazolo[1,5-a]pyrimidine-5-carboxamide], the IC50 at Pim-1 was ≤ 10 nM; at Pim-2, ≤ 100 nM; on Pim-3, ≤ 10 nM.

In the case of `CCc1cc2nc(C(=O)Nc3cnccc3N3C[C@@H](N)[C@H](O)[C@@H](C)C3)ccc2s1` [Example 85, N-(4-((3R,4R,5S)-3-amino-4-hydroxy-5-methylpiperidin-1-yl)pyridin-3-yl)-2-ethylthieno[3,2-b]pyridine-5-carboxamide], the IC50 was ≤ 10 nM on Pim-1, ≤ 100 nM on Pim-2 and ≤ 10 nM at Pim-3.
